# Literature values, collected in US6313179A, “Treatment of hyperproliferative skin disorders with C18 to C20 aliphatic alcohols” (Avanir Pharmaceuticals, priority 1998, dated 2001).
# Conditions: oral ingestion; U.S. Pat. No. 3,031,376; cited from earlier work
row,Structure (SMILES),physical performance of athletes
1,"CCCCCCCCCCCCCCCCCCCCCCCCCCCCO [n-octacosanol, reference compound]",improved physical performance of athletes
2,CCCCCCCCCCCCCCCCCCCCCCCCO [n-tetracosanol],improved physical performance of athletes
3,CCCCCCCCCCCCCCCCCCCCCCCCCCO [n-hexacosanol],improved physical performance of athletes
4,"CCCCCCCCCCCCCCCCCCCCCCCCCCCCCCO [triacontanol, reference compound]",improved physical performance of athletes
